The numbers were not newly measured in patent publication US8454566B2, “Methods and compositions for the inhibition of biofilms on medical devices” (Medtronic MiniMed, Inc., priority 2003, dated 2013), which cites them from elsewhere.

The target in the series is avidin (Gallus gallus, UniProt P02701). As to conditions: avidin tetramer binds 4 biotin molecules in solution, noncovalent interaction.

SMILES strings stand for the structures.

Sequence of avidin (P02701 25-152): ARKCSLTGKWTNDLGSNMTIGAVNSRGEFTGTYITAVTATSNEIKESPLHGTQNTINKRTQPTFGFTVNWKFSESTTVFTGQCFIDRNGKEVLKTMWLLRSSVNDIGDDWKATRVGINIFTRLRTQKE

Turning to `O=C(O)CCCC[C@@H]1SC[C@@H]2NC(=O)N[C@@H]21` [biotin], the binding constant result is recorded as “about 10^15 M^−1”.
